Tests used:
EMT6 cells = test: In vivo efficacy, EMT6 syngeneic mouse model; design: species or system BALB/c mice; conditions: FIG. 12
Protocol: Female BALB/c mice (KOTECH, South Korea) with 6 weeks of age, were used for all studies that were completed under the approval of the Legochembio Science's Institutional Animal Care and Use Committee (IACUC). CT26 or EMT6 cells (American Type Culture Collection (ATCC), #CRL-2638, #CRL-2755) were maintained in RPMI 1640 medium (Gibco, #22400097) supplemented with 10% heat-inactivated FBS and 1× Antibiotic-Antimycotic (Gibco, #15240062) at 37° C. with 5% CO2. The mycoplasma-negative cells were used for all experiments and mycoplasma test was done regularly using e-Myco™ VALiD Mycoplasma PCR Detection Kit (iNtRON biotechnology, #25239). CT26 cells (2×10^5 cells/mouse) or EMT6 cells (5×10^5 cells/mouse) in PBS were implanted subcutaneously into the shaved right flank. Tumor volumes and body weights were measured every 3 to 4 days, and the tomor volumes were calculated according to the formula 0.5×(length)×(width)^2.
Specifically, to determine in vivo efficacy of STING agonist compounds (Compound 214 and 221) in CT26 syngeneic mouse model, when tumor volume reached 70 mm^3, each compound was given at 1.5 mg/kg intravenously every 3 or 4 days (total three times). […] To determine in vivo efficacy of STING agonist compound (Compound 313) in EMT6 syngeneic mouse model, when tumor volume 100 mm^3, the compound was given at the indicated doses intravenously once weekly for 3 weeks except for the dose at 0.05 mg/kg twice a week.
A syngeneic system was used to assess the ability of the STING agonist compounds to induce immune responses and drive an anti-tumor immune response. In both CT26 and EMT6 syngeneic models, the STING agonist compounds remarkably controlled tumor growth at various doses (FIGS. 7 to 12).
Compound 313 also eliminated tumors in all groups (1 out of 5 for 0.05 mg/kg, 2 out of 5 for 0.1 mg/kg, 5 out of 5 for both 0.3 and 0.6 mg/kg) in EMT6 model (FIG. 12).

hSTING HAQ variant = biological target: T1, hSTING HAQ variant (Homo sapiens, UniProt Q86WV6, G230A/H232R/R293Q/R71H); test: STING activation, THP1-Dual IRF3 reporter assay, hSTING-HAQ cells; assay type: cell-based; conditions: IRF3 luciferase reporter, 24 hours, read-out: STING activity using hSTING-HAQ cells, HAQ EC50
T1 construct: host or cells: THP1-Dual cells (human monocytes)
Protocol: (§1) To assess potency of STING agonist compounds described herein, THP1-Dual™ Cells (NF—KB-SEAP and IRF-Lucia luciferase reporter monocytes, InvivoGen) were used. The reporter cells were knocked-in either of hSTING-WT (R232, #thpd-r232), HAQ variant (#thpd-nfis), or H232 variant (#thpd-h232). All cells were cultured at 37° C. in a humidified incubator at 5% CO2 and maintained in RPMI 1640 medium (Gibco, #22400097) supplemented with 10% heat-inactivated FBS and 1×Pen-Strep (Gibco, #15140122). To measure STING agonist-mediated IRF3 activity, the cells (9.0×10^4 cells per well) were seeded in a flat-bottomed 96-well plate. The next day, the cells were treated with compounds in a serial dilution for 24 hours. Subsequently, 20 μL of the cell culture supernatant and 50 μL of the QUANTI-Luc™ reagent (InvivoGen, #rep-qlc) were mixed in a 96-well white plate and then, luciferase activity was measured using an EnVision Xcite multilabel reader. The data were analyzed using Prism8 software (4-parameter).
(§2) The potency of STING agonist compounds was evaluated by the activation of Type I Interferon pathway using THP-1 IRF3 reporter assay.

[1] = Normal cell cytotoxicity in CD34+ HSC, CellTiter-Glo; assay type: cell-based; conditions: human, CD34+ hematopoietic stem cells (HSCs), read-out: In vitro cell cytotoxicity in CD34+ HSC CC50
Protocol: The CD34^+ hematopoietic stem cells (HSCs) were purchased from […]™ (#70002.3). The cells (2×10^4 cells per well) were cultured in StemSpan™ SFEM II medium supplemented with StemSpan™ CD34+ Expansion Supplement (#02691) in a 6-well plate at 37° C. for 7 days. On day 3 or 4, an equal volume of fresh complete medium was added into the cell culture. On day 7, the cells (4×10^4 cells per well) were seeded in a 96-well white plate and rested for 24 hours in the same condition.
After 72 hours, the cell viability was measured using CellTiter-Glo Luminescent Cell Viability Assay (Promega, #G7573) according to the manufacture's instruction. The signal was detected using an EnVision Xcite multilabel reader and data were analyzed using GraphPad Prism 8 software.

hSTING H232 variant = biological target: T2, hSTING H232 variant (Homo sapiens, UniProt Q86WV6); test: STING activation, THP1-Dual IRF3 reporter assay, hSTING-H232 cells; assay type: cell-based; conditions: IRF3 luciferase reporter, 24 hours, read-out: STING activity using hSTING-H232 cells, H232 EC50
T2 construct: host or cells: THP1-Dual cells (human monocytes) with knocked-in hSTING H232
Protocol: as §1, §2

human STING = biological target: T3, human STING (Homo sapiens, UniProt Q86WV6, H232R); test: Direct STING binding, HUMAN STING WT BINDING KIT (Cisbio); conditions: direct binding to human STING WT protein in vitro; read-out: Binding potency EC50
T3 construct: purchased Cisbio 64BDSTGPEG
Description: Additionally, for analysis of direct binding potency of STING agonist compounds described herein to human STING, HUMAN STING WT BINDING KIT (Cisbio, #64BDSTGPEG) was used according to the manufacture's instruction.

hSTING-WT (R232) = biological target: T4, hSTING-WT (R232) (Homo sapiens, UniProt Q86WV6, H232R); test: STING activation, THP1-Dual IRF3 reporter assay, hSTING-R232 cells; assay type: cell-based; conditions: IRF3 luciferase reporter, 24 hours, read-out: STING activity using hSTING-R232 cells EC50
T4 construct: host or cells: THP1-Dual cells (human monocytes) with knocked-in hSTING R232
How it was run: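 THP1-Dual monocytes carrying knocked-in hSTING-WT (R232), H232 or HAQ variants were seeded at 9.0×10^4 cells per well and treated next day with serially diluted compounds for 24 h. Secreted IRF-Lucia luciferase in the supernatant was read by luminescence, and EC50 values were fitted with a 4-parameter model.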

T1 sequence (Q86WV6 whole entry R71H/G230A/H232R/R293Q): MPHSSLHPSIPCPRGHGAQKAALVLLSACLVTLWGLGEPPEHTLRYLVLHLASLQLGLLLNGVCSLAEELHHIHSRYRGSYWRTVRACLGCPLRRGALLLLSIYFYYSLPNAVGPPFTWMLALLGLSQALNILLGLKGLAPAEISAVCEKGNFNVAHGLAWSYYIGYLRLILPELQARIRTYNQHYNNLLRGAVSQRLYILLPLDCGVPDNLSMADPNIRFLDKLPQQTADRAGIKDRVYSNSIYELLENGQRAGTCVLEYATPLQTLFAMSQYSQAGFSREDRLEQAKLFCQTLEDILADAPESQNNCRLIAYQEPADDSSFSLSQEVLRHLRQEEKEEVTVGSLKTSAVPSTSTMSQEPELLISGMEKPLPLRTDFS
T3 sequence (Q86WV6 whole entry H232R): as the sequence (Q86WV6 whole entry R71H/G230A/H232R/R293Q) above, with H71R, A230G, Q293R counted along it
T4 sequence (Q86WV6 whole entry H232R): as the sequence (Q86WV6 whole entry R71H/G230A/H232R/R293Q) above, with H71R, A230G, Q293R counted along it

SMILES: CCn1nc(C)cc1C(=O)Nc1nc2cc(C(N)=O)cc(OC/C=C/Cn3cc(NC(=O)OCc4ccc(O[C@@H]5O[C@H](C(=O)O)[C@@H](O)[C@H](O)[C@H]5O)c(C(=O)NCCOCCOCCN(C)C)c4)cn3)c2n1C/C=C/Cn1c(NC(=O)c2cc(C)nn2CC)nc2cc(C(N)=O)cc(OCCCC(=O)O)c21 [Compound 313]
- mice with tumors eliminated (EMT6 cells; 0.05 mg/kg intravenously twice a week): 1 out of 5
- mice with tumors eliminated (EMT6 cells; 0.1 mg/kg intravenously once weekly for 3 weeks): 2 out of 5
- mice with tumors eliminated (EMT6 cells; 0.3 mg/kg intravenously once weekly for 3 weeks): 5 out of 5
- mice with tumors eliminated (EMT6 cells; 0.6 mg/kg intravenously once weekly for 3 weeks): 5 out of 5
- EC50 (hSTING HAQ variant): 115 nM
- CC50 at 72 h [1]: 44.5 nM
- EC50 (hSTING H232 variant): 216 nM
- EC50 (human STING): 0.08 nM
- EC50 (hSTING-WT (R232)): 68.3 nM

Reference: US20260167659A1, “STING AGONISTS” (LIGACHEM BIOSCIENCES INC., priority 2022, published 2026)
